This passage reports IC50 results from patent US20090082354A1, “PYRAZOLO[5, 1-C] [1,2,4] TRIAZINES, METHODS FOR PREPARATION AND USE THEREOF” (Wyeth, priority 2007, published 2009).

For orientation: IC50 means the concentration that inhibits the measured activity by half.

The assay deals with T1, Flag/GST-tagged recombinant human B-Raf (Homo sapiens, UniProt P15056).
T1 construct: Flag; GST; made in house; host or cells: Sf9 insect cells (B-Raf); E. coli (MEK1-GST)
Kind of assay: B-Raf kinase assay (phosphorylation of GST-MEK1, DELFIA readout). In kind it is biochemical. The note with it: B-Raf 0.2 nM, non-active GST-MEK1 2.8 nM, 45 minutes at RT; compound 1 μM to 3 nM or 0.1 uM to 300 pm in half log dilutions. The method, then: Testing For B-Raf Kinase Inhibitors
Compounds of Formula A were tested as B-Raf Kinase inhibitors that can inhibit growth of tumor cells which contain oncogenic forms of Receptor Tyrosine Kinases or K-Ras, or B-Raf kinase.
Reagents: Flag/GST-tagged recombinant human B-Raf produced in Sf9 insect cells, human non-active Mek-1-GST (recombinant protein produced in E. coli); and a phospho-MEK1 specific poly-clonal Ab from Cell Signaling Technology (Cat. #9121).
B-Raf1 Kinase Assay Procedure: B-Raf-1 is used to phosphorylate GST-MEK1. MEK1 phosphorylation is measured by a phospho-specific antibody (from Cell Signaling Technology, Cat. #9121) that detects phosphorylation of two serine residues at positions 217 and 221 on MEK1.
The following Kinase Assay Protocol was employed in accordance with the invention:
B-Raf Assay Stock Solutions:
1. Assay Dilution Buffer (ADB): 20 mM MOPS, pH 7.2, 25 mM B-glycerol phosphate, 5 mM EGTA, 1 mM sodium orthovanadate, 1 mM dithiothreitol, 0.01% Triton X-100. 2. Magnesium/ATP Cocktail: ADB solution (minus Triton X-100) plus 200 μM cold ATP and 40 mM magnesium chloride. 3. Active Kinase: Active B-Raf: used at 0.2 nM per assay point. 4. Non-active GST-MEK1: Use at 2.8 nM final concentration). 5. TBST-Tris (50 mM, pH 7.5), NaCl (150 mM), Tween-20 (0.05%)
7. Anti pMEK Ab (Upstate) 8. Anti-rabbit Ab/Europium conjugate (Wallac)
1. Add 25 μl of ADB containing B-Raf and Mek per assay (i.e. per well of a 96 well plate) 2. Add 25 μl of 0.2 mM ATP and 40 mM magnesium chloride in Magnesuium/ATP Cocktail. 3. Incubate for 45 minutes at RT with occasional shaking. 4. Transfer this mixture to an anti-GST Ab coated 96 well plate (Nunc Immunosorb plates coated o/n with a-GST. Plate freshly washed 3× with TBS-T before use. 5. Incubate o/n at […] in cold room. 6. Wash 3× with TBST, add Anti-Phospho MEK1 (1:1000, dilution depends upon lot) 7. Incubate for 60 minutes at RT in a shaking incubator 8. Wash 3× with TBST, add Anti-rabbit Ab/Europium conjugate (Wallac) (1:500, dilution depends upon lot) 9. Incubate for 60 minutes at RT on a platform shaker. 10. Wash plate 3× with TBS-T 11. Add 100 ul of Wallac Delfia Enhancement Solution and shake for 10 minutes. 12. Read plates in Wallac Victor model Plate Reader. 13. Collect data analyze in Excel for single point and IC50 determinations. Mallon R, et al (2001) Anal. Biochem. 294:48.
IC50 determinations were performed on compounds of Formula A from single point assays with >80% inhibition. Single point assay—% inhibition at 10 mg/mL (% inhibition=1—sample treated with compound of Formula A/untreated control sample). The % inhibition was determined for each compound concentration. IC50 determinations—Typically the B-Raf assay was run at compound concentrations from 1 μM to 3 nM or 0.1 uM to 300 pm in half log dilutions. Data was analyzed in Excel and transferred to Radis.

T1 sequence (P15056 whole entry): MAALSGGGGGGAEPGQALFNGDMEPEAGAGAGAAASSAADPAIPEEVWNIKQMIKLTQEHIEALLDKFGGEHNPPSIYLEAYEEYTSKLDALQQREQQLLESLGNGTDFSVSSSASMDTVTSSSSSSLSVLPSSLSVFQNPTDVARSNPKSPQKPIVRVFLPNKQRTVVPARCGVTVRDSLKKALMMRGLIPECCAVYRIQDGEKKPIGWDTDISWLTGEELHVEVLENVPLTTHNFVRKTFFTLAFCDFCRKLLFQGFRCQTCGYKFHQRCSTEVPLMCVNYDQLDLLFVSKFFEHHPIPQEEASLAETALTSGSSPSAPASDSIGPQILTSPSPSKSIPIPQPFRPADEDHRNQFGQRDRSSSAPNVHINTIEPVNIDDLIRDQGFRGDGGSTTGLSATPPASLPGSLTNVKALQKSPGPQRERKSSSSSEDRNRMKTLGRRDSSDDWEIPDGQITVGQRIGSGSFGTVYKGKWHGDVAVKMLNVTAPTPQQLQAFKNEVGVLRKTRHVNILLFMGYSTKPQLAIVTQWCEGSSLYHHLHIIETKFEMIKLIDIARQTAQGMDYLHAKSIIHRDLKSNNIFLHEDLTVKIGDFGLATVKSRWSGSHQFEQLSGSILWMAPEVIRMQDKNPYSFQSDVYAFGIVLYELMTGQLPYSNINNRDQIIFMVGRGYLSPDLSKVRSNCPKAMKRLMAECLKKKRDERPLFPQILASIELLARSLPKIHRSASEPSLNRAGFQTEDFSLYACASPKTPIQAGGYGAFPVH

For the molecule `CN1CCN(S(=O)(=O)c2cccc(-c3cnnc4c(-c5ccc(Cl)c(O)c5)c(-c5ccncc5)nn34)c2)CC1` [Example 15, 2-Chloro-5-(4-{3-[(4-methylpiperazin-1-yl)sulfonyl]phenyl}-7-pyridin-4-ylpyrazolo[5,1-c][1,2,4]triazin-8-yl)phenol], the IC50 is < 0.3 nM. Next, `Cc1c(S(=O)(=O)c2ccccc2)nnc2c(-c3cccc(O)c3)c(-c3ccncc3)nn12` [Example 9, 3-[4-Methyl-3-(phenylsulfonyl)-7-pyridin-4-ylpyrazolo[5,1-c][1,2,4]triazin-8-yl]phenol]: 55 nM; `COc1cccc(-c2c(-c3ccncc3)nn3c(C)c(C(=O)N4CCN(C)CC4)nnc23)c1` [Example 3]: 1000 nM; `CN1CCCN(c2ccc(-c3cnnc4c(-c5cccc(O)c5)c(-c5ccncc5)nn34)cn2)CC1` [Example 6, 3-{4-[6-(4-Methyl-[1,4]diazepan-1-yl)-pyridin-3-yl]-7-pyridin-4-yl-pyrazolo[5,1-c][1,2,4]triazin-8yl}-phenol]: 2 nM. Next, `CN1CCCN(c2ccc(-c3cnnc4c(-c5ccc(Cl)c(O)c5)c(-c5ccncc5)nn34)cn2)CC1` [Example 14, 2-Chloro-5-{4-[6-(4-methyl-1,4-diazepan-1-yl)pyridin-3-yl]-7-pyridin-4-ylpyrazolo[5,1-c][1,2,4]triazin-8-yl}phenol]: < 0.3 nM; `Oc1cccc(-c2c(-c3ccncc3)nn3c(C4CCCCC4)cnnc23)c1` [Example 2, 3-(4-cyclohexyl-7-pyridin-4-yl-pyrazolo[5,1-c][1,2,4]triazin-8-yl)phenol]: 18 nM; `Oc1cccc(-c2c(-c3ccncc3)nn3c(-c4ccc(Br)nc4)cnnc23)c1` [Example 5, 3-[4-(6-Bromo-pyridin-3-yl)-7-pyridin-4-yl-pyrazolo[5,1-c][1,2,4]triazin-8-yl]-phenol]: 91 nM. For the molecule `CCOC(=O)N1C2CCC1CC(c1cnnc3c(-c4ccc(Cl)c(O)c4)c(-c4ccncc4)nn13)C2` (stereo not shown) [Example 18, Ethyl 3-[8-(4-chloro-3-hydroxyphenyl)-7-pyridin-4-ylpyrazolo[5,1-c][1,2,4]triazin-4-yl]-8-azabicyclo[3.2.1]octane-8-carboxylate], the IC50 was 0.3 nM. With `CN1CCN(c2ccc(-c3cnnc4c(-c5cccc(O)c5)c(-c5ccncc5)nn34)cn2)CC1` [Example 7, 3-{4-[6-(4-Methyl-piperazin-1-yl)-pyridin-3-yl]-7-pyridin-4-yl-pyrazolo[5,1-c][1,2,4]triazin-8-yl}-phenol], the IC50 is 2 nM.

On to `CCOC(=O)c1nnc2c(-c3ccc(Cl)c(OC)c3)c(-c3ccncc3)nn2c1C1CC1` [Example 10, Ethyl 8-(4-chloro-3-methoxyphenyl)-4-cyclopropyl-7-pyridin-4-yl pyrazolo[5,1-c][1,2,4]triazine-3-carboxylate], for which the IC50 is 329 nM.
